Measured values reported in US12630544B2, “Compound, α-synuclein aggregate binder, and use thereof” (NATIONAL INSTITUTES FOR QUANTUM SCIENCE AND TECHNOLOGY, priority 2020, dated 2026).

Experiments:
[1] = Ex vivo imaging (autoradiography) of brain of physiological saline-injected mouse; format: in vivo; conditions: intravenous, brain collected 40 minutes after administration
Procedure: A physiological saline-injected mouse was anesthetized with 1.5% (v/v) isoflurane. Then, [^18F]SPAL-T-06 (28.9 MBq) was intravenously injected into the physiological saline-injected mouse. Forty minutes after the administration of [^18F]SPAL-T-06, the brain was collected and frozen. In a cryostat (HM560), frozen coronal sections each having a thickness of 20 μm and respectively including positions at 0.50 mm, −0.46 mm, −1.94 mm, −3.16 mm, and −6.64 mm from the bregma were prepared. Each section was air-dried, and then placed in contact with an imaging plate for 15 minutes in a cassette. Thereafter, autoradiographs were obtained with use of BAS-5000 (Fuji Film).

[2] = target: T1, homogenate of the brain of the DLB patient which was rich in α-synuclein lesions (Homo sapiens, UniProt P37840); experiment: In vitro binding test, homogenate of the brain of the DLB patient
T1 construct: α-synuclein aggregates formed in the brain of the DLB patient; from tissue; host or cells: post-mortem human brain: amygdala of DLB patient (sections or homogenate); cerebellum of MSA patient
Procedure: (§1) Fresh frozen tissue from the amygdala in the brain of a DLB patient and fresh frozen tissue from the frontal cortex in the brain of an AD patient were used. To each fresh frozen brain tissue, zirconia beads (ZB-20, TOMY) and a buffer solution which was 10 times the wet weight of the tissue were added. A mixture thus obtained was smashed with use of Micro Smash (MS-100R, TOMY) and then stored at −80° C. A homogenate of the brain of the DLB patient or a homogenate of the brain of the AD patient, [^18F]SPAL-T-06 (final concentration: 5 nM), and non-labeled SPAL-T-06 (final concentration: 0.01 nM to 1 μM) were mixed into a Tris-HCl buffer solution (containing 20% ethanol). Incubation was carried out at room temperature for 30 minutes, and then B/F separation (B: bound ligand, F: free ligand) was carried out by suction filtration and washing. Thereafter, radioactivity captured on a glass filter was measured with use of a gamma counter (2480WIZARD2, ParkinElmer). With regard to the concentration of each non-labeled SPAL-T-06, a test was carried out in triplicate. Results were analyzed with use of Prism 6J (GraphPad), displacement curves of the tested compounds were obtained, and then IC50 of each was calculated.

α-synuclein aggregates [3] = target: T2, α-synuclein aggregates (Mus musculus, UniProt O55042); experiment: In vivo PET imaging of mouse brain (α-synuclein fibril-inoculated mouse vs physiological saline-injected mouse); conditions: α-synuclein fibril-inoculated model mouse, intravenous injection
T2 construct: from tissue; host or cells: brain of C57/BL/6 mouse inoculated in the striatum with recombinant (E. coli) mouse α-synuclein fibrils; sections or living animal
Procedure: First, mouse α-synuclein was expressed in and extracted from E. coli as a recombinant protein, and then incubated in vitro to form insoluble α-synuclein aggregates. The α-synuclein aggregates were then inoculated into the striatum of a mouse. […] Note that the inoculation of the α-synuclein aggregates into the striatum of the mouse was carried out in the following manner. First, hair on the head of a 9-week-old C57/BL/6 male mouse which had been anesthetized with 1.5% (v/v) isoflurane was removed, and the scalp was disinfected with isodine, followed by application of xylocaine and incision in the scalp to expose the skull. Then, a hole was drilled in the skull at a position of 0.05 mm posterior to the bregma and 2 mm lateral to the midline, and 3 μl of an α-synuclein fibril solution (mouse α-synuclein fibril (4 mg/ml) in saline) was injected into a position […] ventral to the brain surface with use of a glass pipette. The scalp was then returned and sutured.
PET scanning was carried out with use of a micro PET Focus 220 animal scanner (Siemens Medical Solutions), which provided 95 slices each having a thickness of 0.851 mm (center thickness), a […]. Before the scanning, an α-synuclein fibril-inoculated mouse and a physiological saline-injected mouse (control) were each anesthetized with 1.5% (v/v) isoflurane. […]

[4] = target: T3, lesions caused by phosphorylated α-synuclein (Homo sapiens, UniProt P37840); experiment: In vitro autoradiography of human brain sections (DLB, MSA, healthy subject); format: binding; conditions: 10 nM
T3 construct: α-synuclein aggregates formed in the brain of the DLB patient; from tissue; host or cells: post-mortem human brain: amygdala of DLB patient (sections or homogenate); cerebellum of MSA patient
Text: Postmortem human brains were obtained in autopsies carried out with respect to a DLB patient, a multiple system atrophy (MSA) patient, and a healthy subject. In a cryostat (HM560, Carl Zeiss), frozen tissue from the DLB patient and frozen tissue from the healthy subject were sliced into sections each having a thickness of 20 μm. Brain tissue from the MSA patient was fixed in 10% neutral buffered formalin, embedded in a paraffin block, and sliced into sections each having a thickness of 6 μm.
Postfixed fresh frozen sections of amygdala tissue from the brain of the DLB patient and the frontal cortex tissue from the brain of the healthy subject and deparaffinized sections of formalin-fixed paraffin-embedded cerebellum tissue from the brain of the MSA patient were used. Each brain tissue section and [^18F]SPAL-T-06 (final concentration: 10 nM) were incubated in 50 mM Tris-HCl containing 20% ethanol at room temperature for 1 hour. In order to detect specific binding, the brain tissue section was also incubated in 50 mM Tris-HCl (containing 20% ethanol) containing [^18F]SPAL-T-06 (final concentration: 10 nM) and non-labeled SPAL-T-06 (final concentration: 10 μM). Subsequently, the section was washed with 50 mM Tris-HCl (containing 20% EtOH) at 4° C. for 2 minutes. This washing was carried out twice. Thereafter, the section was rinsed with MilliQ. […]

[5] = target: homogenate of the brain of the AD patient (tau aggregates or amyloid β aggregates); experiment: In vitro binding test, homogenate of the brain of the AD patient; parameters: species or system human; conditions: [18F]SPAL-T-06 5 nM displaced by non-labeled SPAL-T-06 0.01 nM to 1 μM; frontal cortex; room temperature 30 minutes
Procedure: as §1

α-synuclein aggregates [6] = experiment: In vivo PET imaging of α-synuclein fibril-inoculated marmoset brain; conditions: intravenous injection

Q: Which “nonspecific accumulation in the white matter area (ex vivo autoradiography)” value [1] does the source give for `CNc1cnc(C#C/C=C/c2nc3ccc(OCC(O)C[18F])cc3s2)cn1` (centres unmarked) [[^18F]SPAL-T-06, [^18F]-(E)-1-fluoro-3-((2-(4-(5-(methylamino)pyrazin-2-yl)but-1-en-3-yn-1-yl)benzo[d]thiazol-6-yl)oxy)propan-2-ol] here?
A: not seen

Q: And the “binding selectivity with respect to α-synuclein aggregates versus tau or amyloid β aggregates (homogenate binding)” value ([2]; DLB versus AD brain homogenate)?
A: high binding selectivity

Q: What about the IC50 ([2]; [18F]SPAL-T-06 5 nM displaced by non-labeled SPAL-T-06 0.01 nM to 1 μM, amygdala, room temperature 30 minutes) of the same molecule?
A: 1.58 nM

Q: What about the “accumulation in striatum and cerebral cortex rich in α-synuclein lesions (PET)” value (α-synuclein aggregates [3]) of the same molecule?
A: clear accumulation

Q: What about the “binding to areas rich in lesions caused by phosphorylated α-synuclein (autoradiography)” value ([4]; DLB amygdala and MSA cerebellum sections, 1 hour) of the same molecule?
A: bound to areas in the brains of the DLB patient and the MSA patient which were rich in lesions caused by phosphorylated α-synuclein

Q: And the “non-specific binding in gray matter and white matter of healthy subject frontal cortex (autoradiography)” value ([4]; section of frontal cortex of healthy subject)?
A: hardly observed

Q: What about the IC50 [5] of the same molecule?
A: 10.9 nM

Q: And the “accumulation in the caudate nucleus rich in α-synuclein lesions (PET)” value (α-synuclein aggregates [6])?
A: clear accumulation
